Test: Inhibition of bovine topoisomerase I, using cleavable complex assay.

Going from `CCC1(O)C(=O)OCc2c1cc1n(c2=O)C/C(=C2\C(=O)N(C)c3ccccc32)C1=O` (configuration not stated) [4-Ethyl-4-hydroxy-7-[1-methyl-2-oxo-1,2-dihydro-indol-(3E)-ylidene]-1,4,7,8-tetrahydro-pyrano[3,4-f]indolizine-3,6,10-trione] to `CC[C@]1(O)C(=O)OCc2c1cc1n(c2=O)C/C(=C2\C(=O)Nc3ccccc32)C1=O` [(R)-4-Ethyl-4-hydroxy-7-[2-oxo-1,2-dihydro-indol-(3E)-ylidene]-1,4,7,8-tetrahydro-pyrano[3,4-f]indolizine-3,6,10-trione], the IC50 falls from greater than 100 µM to 4 µM.

Going from `CCC1(O)C(=O)OCc2c1cc1n(c2=O)C/C(=C2\C(=O)Nc3c2cc(F)c(F)c3F)C1=O` (configuration not stated) [4-Ethyl-4-hydroxy-7-[5,6,7-trifluoro-2-oxo-1,2-dihydro-indol-(3E)-ylidene]-1,4,7,8-tetrahydro-pyrano[3,4-f]indolizine-3,6,10-trione] to `CC[C@]1(O)C(=O)OCc2c1cc1n(c2=O)C/C(=C2\C(=O)Nc3cc(F)c(F)cc32)C1=O` [(R)-7-[5,6-Difluoro-2-oxo-1,2-dihydro-indol-(3E)-ylidene]-4-ethyl-4-hydroxy-1,4,7,8-tetrahydro-pyrano[3,4-f]indolizine-3,6,10-trione], the IC50 falls from greater than 100 µM to 1.3 µM.

`CC[C@]1(O)C(=O)OCc2c1cc1n(c2=O)C/C(=C2\C(=O)Nc3cc(OC(F)(F)F)ccc32)C1=O` [(R)-4-Ethyl-4-hydroxy-7-[2-oxo-6-trifluoromethoxy-1,2-dihydro-indol-(3E)-ylidene]-1,4,7,8-tetrahydro-pyrano[3,4-f]indolizine-3,6,10-trione] and `CCC1(O)C(=O)OCc2c1cc1n(c2=O)C/C(=C2\C(=O)Nc3cc(OC)ccc32)C1=O` (configuration not stated) [4-Ethyl-4-hydroxy-7-[6-methoxy-2-oxo-1,2-dihydro-indol-(3E)-ylidene]-1,4,7,8-tetrahydro-pyrano[3,4-f]indolizine-3,6,10-trione] cannot be ordered by IC50: greater than 100 µM for the first, greater than 100 µM for the second.

Going from `CC[C@]1(O)C(=O)OCc2c1cc1n(c2=O)C/C(=C2\C(=O)Nc3ccc(I)cc32)C1=O` [(R)-4-Ethyl-4-hydroxy-7-[5-iodo-2-oxo-1,2-dihydro-indol-(3E)-ylidene]-1,4,7,8-tetrahydro-pyrano[3,4-f]indolizine-3,6,10-trione] to `CCC1(O)C(=O)OCc2c1cc1n(c2=O)C/C(=C2\C(=O)Nc3ccc(I)cc32)C1=O` (configuration not stated) [4-Ethyl-4-hydroxy-7-[5-iodo-2-oxo-1,2-dihydro-indol-(3E)-ylidene]-1,4,7,8-tetrahydro-pyrano[3,4-f]indolizine-3,6,10-trione], the IC50 rises from 12.1 µM to 32 µM (2.6-fold).

Going from `CC[C@@]1(O)C(=O)OCc2c1cc1n(c2=O)C/C(=C2\C(=O)Nc3ccc(F)cc32)C1=O` [(S)-4-Ethyl-7-[5-fluoro-2-oxo-1,2-dihydro-indol-(3E)-ylidene]-4-hydroxy-1,4,7,8-tetrahydro-pyrano[3,4-f]indolizine-3,6,10-trione] to `CCC1(O)C(=O)OCc2c1cc1n(c2=O)C/C(=C2\C(=O)Nc3ccc(F)cc32)C1=O` (configuration not stated) [4-Ethyl-7-[5-fluoro-2-oxo-1,2-dihydro-indol-(3E)-ylidene]-4-hydroxy-1,4,7,8-tetrahydro-pyrano[3,4-f]indolizine-3,6,10-trione], the IC50 falls from greater than 100 µM to 1.2 µM.

First: CC[C@]1(O)C(=O)OCc2c1cc1n(c2=O)C/C(=C2\C(=O)Nc3c2cc(C)cc3[N+](=O)[O-])C1=O [(R)-4-Ethyl-4-hydroxy-7-[5-methyl-7-nitro-2-oxo-1,2-dihydro-indol-(3E)-ylidene]-1,4,7,8-tetrahydro-pyrano[3,4-f]indolizine-3,6,10-trione]
Second: CC[C@]1(O)C(=O)OCc2c1cc1n(c2=O)C/C(=C2\C(=O)Nc3ccc(C)cc32)C1=O [(R)-4-Ethyl-4-hydroxy-7-[5-methyl-2-oxo-1,2-dihydro-indol-(3E)-ylidene]-1,4,7,8-tetrahydro-pyrano[3,4-f]indolizine-3,6,10-trione]
The IC50 of the first is higher: greater than 100 µM for the first, 1.8 µM for the second. The second is the more potent here.

`CCC1(O)C(=O)OCc2c1cc1n(c2=O)C/C(=C2\C(=O)Nc3c2ccc(F)c3C)C1=O` (configuration not stated) [4-Ethyl-7-[6-fluoro-7-methyl-2-oxo-1,2-dihydro-indol-(3E)-ylidene]-4-hydroxy-1,4,7,8-tetrahydro-pyrano[3,4-f]indolizine-3,6,10-trione] and `CC[C@]1(O)C(=O)OCc2c1cc1n(c2=O)C/C(=C2\C(=O)Nc3c(C)cccc32)C1=O` [(R)-4-Ethyl-4-hydroxy-7-[7-methyl-2-oxo-1,2-dihydro-indol-(3E)-ylidene]-1,4,7,8-tetrahydro-pyrano[3,4-f]indolizine-3,6,10-trione] cannot be ordered by IC50: greater than 100 µM for the first, greater than 100 µM for the second.

Compared with `CCC1(O)C(=O)OCc2c1cc1n(c2=O)C/C(=C2\C(=O)Nc3cc4c(cc32)OCCO4)C1=O` (configuration not stated) [4-Ethyl-4-hydroxy-7-[7-oxo-2,3,6,7-tetrahydro-[1,4]dioxino[2,3-f]indol-(8E)-ylidene]-1,4,7,8-tetrahydro-pyrano[3,4-f]indolizine-3,6,10-trione], `CCC1(O)C(=O)OCc2c1cc1n(c2=O)C/C(=C2\C(=O)Nc3cc(F)c(F)cc32)C1=O` (configuration not stated) [7-[5,6-Difluoro-2-oxo-1,2-dihydro-indol-(3E)-ylidene]-4-ethyl-4-hydroxy-1,4,7,8-tetrahydro-pyrano[3,4-f]indolizine-3,6,10-trione] is 20-fold lower in IC50: 29.6 µM for the first, 1.5 µM for the second.

First: CC[C@]1(O)C(=O)OCc2c1cc1n(c2=O)C/C(=C2\C(=O)Nc3ccc(F)cc32)C1=O [(R)-4-Ethyl-7-[5-fluoro-2-oxo-1,2-dihydro-indol-(3E)-ylidene]-4-hydroxy-1,4,7,8-tetrahydro-pyrano[3,4-f]indolizine-3,6,10-trione]
Second: CCC1(O)C(=O)OCc2c1cc1n(c2=O)C/C(=C2\C(=O)Nc3ccc(Cl)cc32)C1=O (configuration not stated) [7-[5-Chloro-2-oxo-1,2-dihydro-indol-(3E)-ylidene]-4-ethyl-4-hydroxy-1,4,7,8-tetrahydro-pyrano[3,4-f]indolizine-3,6,10-trione]
The IC50 of the first is lower: 1.1 µM for the first, greater than 100 µM for the second. The first is the more potent here.

`CCC1(O)C(=O)OCc2c1cc1n(c2=O)C/C(=C2\C(=O)Nc3ccc([N+](=O)[O-])cc32)C1=O` (configuration not stated) [4-Ethyl-4-hydroxy-7-[5-nitro-2-oxo-1,2-dihydro-indol-(3E)-ylidene]-1,4,7,8-tetrahydro-pyrano[3,4-f]indolizine-3,6,10-trione] and `CC[C@]1(O)C(=O)OCc2c1cc1n(c2=O)C/C(=C2\C(=O)Nc3ccc(Br)cc32)C1=O` [(R)-7-[5-Bromo-2-oxo-1,2-dihydro-indol-(3E)-ylidene]-4-ethyl-4-hydroxy-1,4,7,8-tetrahydro-pyrano[3,4-f]indolizine-3,6,10-trione] cannot be ordered by IC50: greater than 100 µM for the first, greater than 100 µM for the second.

First: CCC1(O)C(=O)OCc2c1cc1n(c2=O)C/C(=C2\C(=O)Nc3ccccc32)C1=O (configuration not stated) [4-Ethyl-4-hydroxy-7-[2-oxo-1,2-dihydro-indol-(3E)-ylidene]-1,4,7,8-tetrahydro-pyrano[3,4-f]indolizine-3,6,10-trione]
Second: CC[C@@]1(O)C(=O)OCc2c1cc1n(c2=O)C/C(=C2\C(=O)Nc3ccccc32)C1=O [(S)-4-Ethyl-4-hydroxy-7-[2-oxo-1,2-dihydro-indol-(3E)-ylidene]-1,4,7,8-tetrahydro-pyrano[3,4-f]indolizine-3,6,10-trione]
The IC50 of the first is lower: 5.8 µM for the first, greater than 100 µM for the second. The first is the more potent here.

`CC[C@]1(O)C(=O)OCc2c1cc1n(c2=O)C/C(=C2\C(=O)Nc3c(Cl)cccc32)C1=O` [(R)-7-[7-Chloro-2-oxo-1,2-dihydro-indol-(3E)-ylidene]-4-ethyl-4-hydroxy-1,4,7,8-tetrahydro-pyrano[3,4-f]indolizine-3,6,10-trione] and `CC[C@]1(O)C(=O)OCc2c1cc1n(c2=O)C/C(=C2\C(=O)Nc3cc(SC)ccc32)C1=O` [(R)-4-Ethyl-4-hydroxy-7-[6-methylsulfanyl-2-oxo-1,2-dihydro-indol-(3E)-ylidene]-1,4,7,8-tetrahydro-pyrano[3,4-f]indolizine-3,6,10-trione] cannot be ordered by IC50: greater than 100 µM for the first, greater than 100 µM for the second.

Test: Inhibitory concentration against topoisomerase I obtained from calf thymus

Compared with `CC[C@@]1(O)C(=O)OCc2c1cc1n(c2=O)Cc2c-1nc1ccc(F)cc1c2C(=O)O` [(S)-4-Ethyl-9-fluoro-4-hydroxy-3,13-dioxo-3,4,12,13-tetrahydro-1H-2-oxa-6,12a-diaza-dibenzo[b,h]fluorene-11-carboxylic acid], `CCC1(O)C(=O)OCc2c1cc1n(c2=O)Cc2c-1nc1ccc(F)cc1c2C(=O)O` (configuration not stated) [4-Ethyl-9-fluoro-4-hydroxy-3,13-dioxo-3,4,12,13-tetrahydro-1H-2-oxa-6,12a-diaza-dibenzo[b,h]fluorene-11-carboxylic acid] is lower in IC50: greater than 100 µM for the first, 3.2 µM for the second.

First: CCOC(=O)c1c2c(nc3cc4c(cc13)OCCO4)-c1cc3c(c(=O)n1C2)COC(=O)C3(O)CC (configuration not stated) [ethyl 8-ethyl-8-hydroxy-9,12-dioxo-2,3,8,9,12,14-hexahydro-11H-[1,4]dioxino[2,3-g]pyrano[3',4':6,7]indolizino[1,2-b]quinoline-15-carboxylate]
Second: CCC1(O)C(=O)OCc2c1cc1n(c2=O)Cc2c-1nc1cc3c(cc1c2C(=O)O)OCCO3 (configuration not stated) [8-ethyl-8-hydroxy-9,12-dioxo-2,3,8,9,12,14-hexahydro-11H-[1,4]dioxino[2,3-g]pyrano[3',4':6,7]indolizino[1,2-b]quinoline-15-carboxylic acid]
The IC50 of the first is 34-fold lower: 0.7 µM for the first, 24.1 µM for the second. The first is the more potent here.

`CC[C@]1(O)C(=O)OCc2c1cc1n(c2=O)Cc2c-1nc1ccccc1c2C(=O)O` [(R)-4-Ethyl-4-hydroxy-3,13-dioxo-3,4,12,13-tetrahydro-1H-2-oxa-6,12a-diaza-dibenzo[b,h]fluorene-11-carboxylic acid] and `CCC1(O)C(=O)OCc2c1cc1n(c2=O)Cc2c-1nc1ccc(I)cc1c2C(=O)O` (configuration not stated) [4-Ethyl-4-hydroxy-9-iodo-3,13-dioxo-3,4,12,13-tetrahydro-1H-2-oxa-6,12a-diaza-dibenzo[b,h]fluorene-11-carboxylic acid] are within 1.5-fold of each other in IC50: 2.1 µM for the first, 2.3 µM for the second.

First: CC[C@]1(O)C(=O)OCc2c1cc1n(c2=O)Cc2c-1nc1ccc(F)cc1c2C(=O)O [(R)-4-Ethyl-9-fluoro-4-hydroxy-3,13-dioxo-3,4,12,13-tetrahydro-1H-2-oxa-6,12a-diaza-dibenzo[b,h]fluorene-11-carboxylic acid]
Second: CCC1(O)C(=O)OCc2c1cc1n(c2=O)Cc2c-1nc1cc(F)c(F)cc1c2C(=O)O (configuration not stated) [4-Ethyl-8,9-difluoro-4-hydroxy-3,13-dioxo-3,4,12,13-tetrahydro-1H-2-oxa-6,12a-diaza-dibenzo[b,h]fluorene-11-carboxylic acid]
The IC50 of the first is 2.1-fold higher: 3.1 µM for the first, 1.5 µM for the second. The second is the more potent here.
